Measured values published in patent US20240368151A1, “NOVEL ERGOLINES AND METHODS OF TREATING MOOD DISORDERS” (priority 2021, published 2024).

Key:
[1] = biological target: T1, 5-HT2A receptor (Homo sapiens (Human), UniProt P28223); type: cell-based; details: for arrestin bias: potency in arrestin assay compared to Ca^2+ signaling assay: 5-HT2A arrestin vs G protein-dependent Ca^2+ assay; for 5-HT2A Arrestin % Act @ Max Dose / agonist type in the 5-HT2A arrestin recruitment assay, in words: beta-arrestin recruitment
Procedure, shortened: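 PathHunter enzyme-fragment complementation in cells expressing ProLink-tagged 5-HT2A and β-arrestin–β-galactosidase fusion. Cells incubated at 37 °C before testing; recruitment read by chemiluminescence. Agonist activity expressed as % of maximal control ligand response after vehicle subtraction.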

[2] = Metabolic stability in rat liver microsomes (RLM); type: in vitro ADME; details: both sexes, rat, pooled rat liver microsomes, pH 7.4, NADPH
[3] = biological target: T1, 5-HT2A receptor; type: cell-based; details: Ca^2+ flux, HEK293
Procedure, shortened: (§1)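 Agonist-induced calcium flux was measured on FLIPR Tetra in stable HEK293 cells for 5-HT2A and 5-HT2B, and in stable CHO cells for 5-HT1A. Cells were loaded with Fluo-4 Direct dye and 2.5 mM probenecid for 50 min at 37 °C before compound addition and fluorescence reading.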

[4] = biological target: D2 receptor (Homo sapiens (Human), UniProt P14416); assay: FLIPR Ca^2+ flux agonist assay at D2; type: cell-based
D2 receptor, sequence (P14416 whole entry, looked up): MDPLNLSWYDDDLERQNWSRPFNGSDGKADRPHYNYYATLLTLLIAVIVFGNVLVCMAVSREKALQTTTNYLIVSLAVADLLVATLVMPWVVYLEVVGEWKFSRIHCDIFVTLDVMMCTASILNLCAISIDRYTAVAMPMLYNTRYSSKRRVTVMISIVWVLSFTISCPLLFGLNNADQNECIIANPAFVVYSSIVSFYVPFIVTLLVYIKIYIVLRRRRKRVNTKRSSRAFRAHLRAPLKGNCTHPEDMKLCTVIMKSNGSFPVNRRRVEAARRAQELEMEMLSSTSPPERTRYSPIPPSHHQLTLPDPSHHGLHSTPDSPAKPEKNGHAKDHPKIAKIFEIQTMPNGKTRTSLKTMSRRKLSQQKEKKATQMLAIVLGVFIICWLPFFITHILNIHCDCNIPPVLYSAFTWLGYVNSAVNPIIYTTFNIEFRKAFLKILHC
Protocol: (§2) Functional Assays at Adrenergic and Dopamine Receptors. Agonist activity at Alpha1A, Alpha2A, D1, and D2 receptors was determined using a FLIPR Ca^2+ flux assay at WuXi AppTec (Hong Kong) Limited according to their standard protocols. Briefly, stably transfected cells expressing the receptor of interest were grown and plated in a 384 well plate and incubated at 37° C. and 5% CO2 overnight. A solution of 250 mM probenecid in 1 mL FLIPR assay buffer was prepared fresh. This was combined with a fluorescent dye (Fluo-4 Direct™) to make a final assay concentration of 2.5 mM. […] The fluorescent dye was then added to the assay plate along with assay buffer to a final volume of 40 μL. The cell plate was incubated for 50 min at 37° C. and 5% CO2 and placed into the FLIPR Tetra along with the compound plate. 10 μL of references and compounds were then transferred from the compound plate into the cell plate and the fluorescent signal was read.

[5] = biological target: Alpha2A receptor (Homo sapiens (Human), UniProt P08913); assay: FLIPR Ca^2+ flux agonist assay at Alpha2A; type: cell-based
Alpha2A receptor, sequence (P08913 whole entry, looked up): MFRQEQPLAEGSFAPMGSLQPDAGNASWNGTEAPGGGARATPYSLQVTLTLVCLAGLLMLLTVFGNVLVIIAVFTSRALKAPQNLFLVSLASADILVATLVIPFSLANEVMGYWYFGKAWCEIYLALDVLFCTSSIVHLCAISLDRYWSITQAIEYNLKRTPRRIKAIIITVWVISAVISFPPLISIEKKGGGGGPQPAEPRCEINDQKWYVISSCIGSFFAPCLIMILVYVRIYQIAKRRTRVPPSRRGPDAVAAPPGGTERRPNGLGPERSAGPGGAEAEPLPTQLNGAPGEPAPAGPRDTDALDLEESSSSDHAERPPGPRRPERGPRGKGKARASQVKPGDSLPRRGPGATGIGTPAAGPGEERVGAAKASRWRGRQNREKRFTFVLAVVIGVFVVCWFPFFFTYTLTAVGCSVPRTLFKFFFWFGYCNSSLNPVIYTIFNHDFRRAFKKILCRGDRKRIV
Protocol: as §2

[6] = Metabolic stability in mouse liver microsomes (MLM); type: in vitro ADME; details: mouse, pooled mouse liver microsomes, pH 7.4, MLM (CD-1), NADPH
Source text: MLM Stability Pooled MLM from CD-1 mice (BIOIVT M00501) were used.

[7] = biological target: 5-HT1B receptor (Homo sapiens (Human), UniProt P28222); assay: cAMP accumulation agonist assay at 5-HT1B; type: cell-based
5-HT1B receptor, sequence (P28222 whole entry, looked up): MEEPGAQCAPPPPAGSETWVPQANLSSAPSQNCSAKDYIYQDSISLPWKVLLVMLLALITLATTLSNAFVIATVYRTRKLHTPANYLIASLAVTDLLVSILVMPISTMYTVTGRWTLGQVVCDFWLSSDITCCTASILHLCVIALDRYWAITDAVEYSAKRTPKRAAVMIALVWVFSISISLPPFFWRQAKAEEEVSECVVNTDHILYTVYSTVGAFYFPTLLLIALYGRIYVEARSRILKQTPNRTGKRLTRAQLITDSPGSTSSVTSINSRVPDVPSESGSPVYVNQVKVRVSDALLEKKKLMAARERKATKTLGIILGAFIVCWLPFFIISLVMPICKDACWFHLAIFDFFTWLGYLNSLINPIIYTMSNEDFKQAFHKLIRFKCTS
Protocol: Functional Assay at 5-HT1B. Agonist activity at 5-HT1B was determined using a cAMP accumulation protocol at WuXi AppTec (Hong Kong) Limited according to their standard protocols. Briefly, stably transfected cells were plated in an OptiPlate-384 well plate, incubated at RT for 60 mins, and cAMP standard solution (800 nM, 10 μL) was added to the blank well. Then, 10 μL detection reagent was added to each well, the plate incubated for 60 mins at RT, and the plate read using EnVision.

[8] = system: C57BL/6 mice; assay: Mouse head twitch response (HTR) assay; type: in vivo; details: SC; for head twitch response (HTR), in words: mice; for head twitch response (HTR), in words / # HTR at Most Efficacious Dose / Emax (95% CI): 20 min observation; for Most Efficacious Dose / # HTR at Most Efficacious Dose / Emax (95% CI): mouse HTR; for Emax (95% CI): curve fit
Protocol: Agonists of the 5-HT2A receptor are well known to induce this effect in rodents and the potency of this HTR is correlated with hallucinogenic potency in humans.
Animals. Adult male C57BL/6 mice, aged 6-8 weeks (body weight 20-25 g) were used in this experiment. Animals were housed under controlled temperatures and 12-hour light/dark cycles (lights on between 07:00-19:00 h), with ad libitum food and water. This study was carried out in strict accordance with the requirements of the Committee for the Purpose of Control and Supervision of Experiments on Animals (CPCSEA), India. All efforts were made to minimize suffering.
Drugs and Drug Administration. Compound 1 was synthesized as described above. It was administered subcutaneously (SC) dissolved in saline vehicle at a volume of 10 mL/kg. Five doses were tested, with n=6 animals/group. Doses were calculated on the basis of the freebase.
Procedure. Mice were administered one dose of the drug and immediately placed into a small open field for behavioral observation. Animals were observed continuously for 20 mins and the number of head twitches (HTs) were counted by an observer blind to the treatment condition.
Statistical Analysis. The data points shown are the mean±standard error of the mean (SEM). Analysis was performed using GraphPad Prism 6. Curves were fit using a non-linear gaussian distribution to calculate ED50 and Emax values.
Additional disclosed compounds were tested in the mouse head twitch response (HTR) assay according to the procedure described in Example 34. […] Lastly, compounds with much larger benzyl and phenethyl substituents on the amine nitrogen (e.g., 10 and 11) were low efficacy in this assay, consistent with their lower maximal efficacy in the arrestin functional assay (see Example 32).

[9] = biological target: 5-HT2B receptor (Homo sapiens (Human), UniProt P41595); assay: FLIPR Ca^2+ flux agonist assay at 5-HT2B; type: cell-based; details: HEK293
5-HT2B receptor, sequence (P41595 whole entry, looked up): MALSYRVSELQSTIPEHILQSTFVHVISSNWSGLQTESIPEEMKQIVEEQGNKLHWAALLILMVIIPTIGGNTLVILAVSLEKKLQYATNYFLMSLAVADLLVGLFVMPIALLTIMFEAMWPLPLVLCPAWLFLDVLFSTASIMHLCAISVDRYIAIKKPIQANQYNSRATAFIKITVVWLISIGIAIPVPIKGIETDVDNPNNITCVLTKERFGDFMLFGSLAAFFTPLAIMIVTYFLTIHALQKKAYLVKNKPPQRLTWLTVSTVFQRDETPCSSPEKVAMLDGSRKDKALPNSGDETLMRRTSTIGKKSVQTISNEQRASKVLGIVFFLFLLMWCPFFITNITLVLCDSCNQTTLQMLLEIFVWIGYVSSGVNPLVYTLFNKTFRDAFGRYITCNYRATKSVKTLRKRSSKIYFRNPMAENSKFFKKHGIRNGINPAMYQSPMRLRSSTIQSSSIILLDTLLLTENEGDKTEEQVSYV
Procedure, shortened: as §1

[10] = biological target: 5-HT1A receptor (Homo sapiens (Human), UniProt P08908); assay: FLIPR Ca^2+ flux agonist assay at 5-HT1A; type: cell-based; details: CHO cells

## CCN(CC)C(=O)[C@@H]1C=C2c3cccc4[nH]cc(c34)C[C@H]2N(CCc2ccccc2OC)C1 [Compound 11, (6aR,9R)-N,N-diethyl-7-(2-methoxyphenethyl)-4,6,6a,7,8,9-hexahydroindolo[4,3-fg]quinoline-9-carboxamide]
[1]
  arrestin bias: potency in arrestin assay compared to Ca^2+ signaling assay: > 50 fold
  5-HT2A Arrestin % Act @ Max Dose: 54.255%
  agonist type in the 5-HT2A arrestin recruitment assay, in words: partial agonists
[2]
  half-life at 1 μM: 1.16 min
[3]
  5-HT2A % Act @ Max Dose: 63.46%
[4]
  D2 % Act @ Max Dose: 98.49%
[5]
  Alpha 2A % Act @ Max Dose: 14.18%
  agonist efficacy at Alpha2A, in words: very low efficacy agonists
[6]
  half-life at 1 μM: 0.917 min
[7]
  5-HT1B % Act @ Max Dose: 47.01%
[8]
  head twitch response (HTR), in words: low efficacy
  Most Efficacious Dose: (3.2 mg/kg)
  # HTR at Most Efficacious Dose: 12.0
  Emax (95% CI): 19.79
[9]
  5-HT2B % Act @ Max Dose: 2.5%
[10]
  5-HT1A % Act @ Max Dose: 57.91%

## CCN(CC)C(=O)[C@@H]1C=C2c3cccc4[nH]cc(c34)C[C@H]2N(CCCF)C1 [Compound 2, (6aR,9R)-N,N-diethyl-7-(3-fluoropropyl)-4,6,6a,7,8,9-hexahydroindolo[4,3-fg]quinoline-9-carboxamide]
[1]
  5-HT2A Arrestin % Act @ Max Dose: 114.55%
  agonist type in the 5-HT2A arrestin recruitment assay, in words: full agonists
[2]
  half-life at 1 μM: 12 min
[3]
  5-HT2A % Act @ Max Dose: 97.75%
[4]
  D2 % Act @ Max Dose: 91.2%
[5]
  Alpha 2A % Act @ Max Dose: 64.96%
[6]
  half-life at 1 μM: 2.67 min
[7]
  5-HT1B % Act @ Max Dose: 89.97%
[8]
  Most Efficacious Dose: (0.32 mg/kg)
  # HTR at Most Efficacious Dose: 21.833
  Emax (95% CI): 20.47
[9]
  5-HT2B % Act @ Max Dose: 101.16%
[10]
  5-HT1A % Act @ Max Dose: 92.42%

## CCN(CC)C(=O)[C@@H]1C=C2c3cccc4[nH]cc(c34)C[C@H]2N(Cc2ccccc2OC)C1 [Compound 10, (6aR,9R)-N,N-diethyl-7-(2-methoxybenzyl)-4,6,6a,7,8,9-hexahydroindolo[4,3-fg]quinoline-9-carboxamide]
[1]
  arrestin bias: potency in arrestin assay compared to Ca^2+ signaling assay: > 50 fold
  5-HT2A Arrestin % Act @ Max Dose: 47.06%
  agonist type in the 5-HT2A arrestin recruitment assay, in words: partial agonists
[2]
  half-life at 1 μM: 3.4 min
[3]
  5-HT2A % Act @ Max Dose: 49.44%
[4]
  D2 % Act @ Max Dose: 86.87%
[5]
  Alpha 2A % Act @ Max Dose: 36.52%
  agonist efficacy at Alpha2A, in words: very low efficacy agonists
[6]
  half-life at 1 μM: 1 min
[7]
  5-HT1B % Act @ Max Dose: 87.29%
[8]
  head twitch response (HTR), in words: low efficacy
  Most Efficacious Dose: (3.2 mg/kg)
  # HTR at Most Efficacious Dose: 6.5
  Emax (95% CI): 7.749
[9]
  5-HT2B % Act @ Max Dose: 2.005%
[10]
  5-HT1A % Act @ Max Dose: 52.96%

## CCCN1C[C@H](C(=O)N(CC)CC)C=C2c3cccc4[nH]cc(c34)C[C@H]21 [Compound 1, (6aR,9R)-N,N-diethyl-7-propyl-4,6,6a,7,8,9-hexahydroindolo[4,3-fg]quinoline-9-carboxamide]
[1]
  5-HT2A Arrestin % Act @ Max Dose: 128.71%
  agonist type in the 5-HT2A arrestin recruitment assay, in words: full agonists
[2]
  half-life at 1 μM: 16.2 min
[3]
  5-HT2A % Act @ Max Dose: 96.96%
[4]
  D2 % Act @ Max Dose: 94.51%
[5]
  Alpha 2A % Act @ Max Dose: 58.3%
[6]
  half-life at 1 μM: 2.3 min
[7]
  5-HT1B % Act @ Max Dose: 96.6%
[8]
  head twitch response (HTR), in words: induced a robust and dose-dependent HTR
  Most Efficacious Dose: (1 mg/kg)
  # HTR at Most Efficacious Dose: 19.5
  Emax (95% CI): 21.63
[9]
  5-HT2B % Act @ Max Dose: 103.75%
[10]
  5-HT1A % Act @ Max Dose: 95.6%

## CCCN1C[C@H](C(=O)N2[C@@H](C)C[C@@H]2C)C=C2c3cccc4[nH]cc(c34)C[C@H]21 [Compound 4, ((2S,4S)-2,4-dimethylazetidin-1-yl)((6aR,9R)-7-propyl-4,6,6a,7,8,9-hexahydroindolo[4,3-fg]quinolin-9-yl)methanone]
[1]
  5-HT2A Arrestin % Act @ Max Dose: 116.8%
  agonist type in the 5-HT2A arrestin recruitment assay, in words: full agonists
[2]
  half-life at 1 μM: 12.8 min
[3]
  5-HT2A % Act @ Max Dose: 97.6%
[4]
  D2 % Act @ Max Dose: 116.6%
[5]
  Alpha 2A % Act @ Max Dose: 102.86%
[6]
  half-life at 1 μM: 0.8 min
[7]
  5-HT1B % Act @ Max Dose: 96%
[8]
  head twitch response (HTR), in words: less efficacious than its N-methyl counterpart compound Int11
  Most Efficacious Dose: (0.1 mg/kg)
  # HTR at Most Efficacious Dose: 4.667
  Emax (95% CI): 4.034
[9]
  5-HT2B % Act @ Max Dose: 87.46%
[10]
  5-HT1A % Act @ Max Dose: 123.1%

## CCCN1C[C@H](C(=O)NC(CC)CC)C=C2c3cccc4[nH]cc(c34)C[C@H]21 [Compound 6, (6aR,9R)-N-(pentan-3-yl)-7-propyl-4,6,6a,7,8,9-hexahydroindolo[4,3-fg]quinoline-9-carboxamide]
[1]
  5-HT2A Arrestin % Act @ Max Dose: 102.75%
  agonist type in the 5-HT2A arrestin recruitment assay, in words: full agonists
[2]
  half-life at 1 μM: 1.66 min
[3]
  5-HT2A % Act @ Max Dose: 94.64%
[4]
  D2 % Act @ Max Dose: 91.67%
[6]
  half-life at 1 μM: 0.6 min
[7]
  5-HT1B % Act @ Max Dose: 94.62%
[8]
  Most Efficacious Dose: (1 mg/kg)
  # HTR at Most Efficacious Dose: 20.5
  Emax (95% CI): 23.06
[9]
  5-HT2B % Act @ Max Dose: 92.93%
[10]
  5-HT1A % Act @ Max Dose: 101.82%
